The text below walks through data of patent US8410056B2, “Pro-oxidant anti-cancer compounds” (priority 2006, dated 2013).

Molecules are shown by their SMILES.

The test system of one assay is cancer cells. Put plainly: IC50, killing of cancer cells in vitro. Format: cell-based. Particulars: approximately. From the text: FIG. 9. […] IC50: Concentration in micromolar that is needed of a particular drug to induce 50% killing of cancer cells in vitro. −log Kd: inverse log of the particular drug's binding affinity.
In FIG. 9, the inventors analysed the correlation between the binding affinities of the vitamin E analogues for the ubiquinone site and their biological activity in causing apoptosis of cancer cells. The result indicates a direct relationship between the binding affinity to the site and their ability to kill cancer cells. The differences observed between the docking and the list of results reflects the biological accessibility of the compounds reaching the complex II target site. Thus, the IC50 reflects not only the ability of the analogues to bind to the site, but also their ability to enter across the cell membrane and gain access to the mitochondrial matrix. […] The best comparison would be made by comparing the Autodock results with an enzyme assay using purified complex II kits commercially available (MS201 COMPLEX II IMMUNOCAPTURE KIT MitoScience LLC, 1850 Millrace Drive, Suite 3A, Eugene, Oreg. 97403, USA, http://www.mitosciences.com).

A further assay concerns MCF-7 cells. Put plainly: Apoptosis, annexin V-FITC method. Format: cell-based, human. Here is the method: Cell culture and treatment. […] Cells were cultured in DMEM with 10% FCS, 100 U/ml penicillin and 100 μg/ml streptomycin at 37° C. in a humidified atmosphere of 5% CO2. Mitochondrial complex I-deficient (Breen and Scheffler 1979; DeFrancesco et al 1976; Scheffler et al 2004) and complex II-deficient cells (Albayrak et al 2003; Oostveen et al 1995) were grown in DMEM with 10% FCS, […] glucose and non-essential amino acids.
At approximately 70% confluency, cells were treated with up to 50 μM α-TOS (Sigma), up to 100 μM 3-BP (Aldrich) or 30 ng/ml of human recombinant tumor necrosis factor-related apoptosis—inducing ligand (TRAIL) (Weber et al, 2002) under normoxic or hypoxic conditions. For hypoxia, cells overlaid with nitrogen-purged medium were placed in a hypoxic chamber pre-flushed extensively with nitrogen. The hypoxic chamber with cells was then placed in the incubator as required. α-TOS was dissolved in ethanol and used such that the final ethanol concentration in cell culture medium was <0.1% (v/v). Stock solutions of 3-BP were prepared in PBS prior to use.
Apoptosis assessment. Apoptosis was quantified using the annexin V-FITC method, which detects phosphatidyl serine externalized in the early phases of apoptosis (Boersma et al, 1996). Briefly, cells were plated at 10^5 per well in 24-well plates and, after an overnight recuperation, treated with α-TOS or 3-BP alone or in combination. Floating and attached cells were harvested, washed with PBS, resuspended in 0.2 ml binding buffer (10 mM Hepes, 140 mM NaCl, 5 mM CaCl2, pH 7.4), incubated for 30 min at 4° C. with 2 μl annexin V-FITC (PharMingen), supplemented with 200 μl of 50 μg/ml propidium iodide (PI; Sigma), and analyzed by flow cytometry (FACScalibur, Becton Dickinson) using channel 1 for annexin V-FITC binding and channel 2 for PI staining. Cell death was quantified as the percentage of cells with increased annexin V binding and PI staining. […]

Assay [1] addresses T1, SDH/Complex II, Paracoccus denitrificans membranes (Paracoccus denitrificans, UniProt Q59659+Q59660+Q59662).
T1 construct: Membranes were prepared from harvested cells by treating with lysozyme; endogenous in cells; host or cells: membrane vesicles of P. denitrificans CCM 982 (NCIB 8944), endogenous enzyme
Put plainly: SDH/Complex II activity, DCIP/PMS assay. Format: biochemical. The settings on record: 100 or 300 μM α-TOS; compared to control. On the procedure: Preparation of membrane vesicles from Paracoccus denitrificans. P. denitrificans CCM 982 (NCIB 8944) was grown anaerobically at 30° C. in a medium containing 50 mM succinate as the carbon source and 10 mM nitrate as the terminal acceptor. Membranes were prepared from harvested cells by treating with lysozyme according to Burnell et al (1975). After dilution in 0.1 M Na phosphate, pH 7.3, to a final protein concentration of approximately 20 mg/ml, the membranes were stored at −20° C. in 1 ml aliquots until used. The protein concentration was determined using the bicinchoninic acid method and an iEMS plate reader (Labsystem, Finland).
Measurement of mitochondrial complex II and complex I activity. A time course for the reduction of the complex II substrate 2,6-dichlorophenol indophenol (DCIP) by the mitochondrial preparations was followed by measuring the absorbance at 600 nm in 1 cm cuvettes containing a 1 ml reaction volume (ε600=21×10^3 M^−1cm^−1). The reaction components included NADH, 0.5 mM; succinate, 5 mM; KCN, 10 mM; DCIP, 50 μM; PMS, 50 μM. For each assay point, 0.5 mg sample protein was used and α-TOS was added at either 100 or 300 μM as indicated. The change in absorbance of DCIP was measured using a spectrophotometer (UVIKON XL, Secomam) and replicate samples were assayed (n=3). When measuring the complex I (NADH dehydrogenase activity), PMS was omitted. […]

Another assay concerns MCF-7 tumors. Put plainly: MCF-7 xenograft in nude mice. The settings on record: 10 μmoles i.p. every 3 d. Format: in vivo.
Assay [2] concerns Jurkat, HBT11, MCF7, MCF7-C3. The settings on record: Birringer et al, cited from earlier work.

T1 sequence (Q59662 whole entry): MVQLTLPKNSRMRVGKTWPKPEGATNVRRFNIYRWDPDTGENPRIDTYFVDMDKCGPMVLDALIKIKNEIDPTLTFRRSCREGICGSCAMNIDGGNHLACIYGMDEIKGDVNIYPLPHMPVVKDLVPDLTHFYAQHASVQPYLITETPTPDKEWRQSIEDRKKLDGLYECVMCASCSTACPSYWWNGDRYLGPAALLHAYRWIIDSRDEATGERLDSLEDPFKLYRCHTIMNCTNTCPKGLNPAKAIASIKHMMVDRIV
T1 sequence (Q59660 whole entry): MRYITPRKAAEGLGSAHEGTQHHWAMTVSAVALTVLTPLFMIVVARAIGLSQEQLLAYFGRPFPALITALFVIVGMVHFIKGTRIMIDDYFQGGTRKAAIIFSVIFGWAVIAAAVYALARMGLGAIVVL
T1 sequence (Q59659 whole entry): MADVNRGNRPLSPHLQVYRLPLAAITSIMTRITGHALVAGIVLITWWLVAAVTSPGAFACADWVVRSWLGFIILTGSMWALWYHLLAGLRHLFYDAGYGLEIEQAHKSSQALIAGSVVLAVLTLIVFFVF
T1 sequence (Q59661 whole entry, further chain): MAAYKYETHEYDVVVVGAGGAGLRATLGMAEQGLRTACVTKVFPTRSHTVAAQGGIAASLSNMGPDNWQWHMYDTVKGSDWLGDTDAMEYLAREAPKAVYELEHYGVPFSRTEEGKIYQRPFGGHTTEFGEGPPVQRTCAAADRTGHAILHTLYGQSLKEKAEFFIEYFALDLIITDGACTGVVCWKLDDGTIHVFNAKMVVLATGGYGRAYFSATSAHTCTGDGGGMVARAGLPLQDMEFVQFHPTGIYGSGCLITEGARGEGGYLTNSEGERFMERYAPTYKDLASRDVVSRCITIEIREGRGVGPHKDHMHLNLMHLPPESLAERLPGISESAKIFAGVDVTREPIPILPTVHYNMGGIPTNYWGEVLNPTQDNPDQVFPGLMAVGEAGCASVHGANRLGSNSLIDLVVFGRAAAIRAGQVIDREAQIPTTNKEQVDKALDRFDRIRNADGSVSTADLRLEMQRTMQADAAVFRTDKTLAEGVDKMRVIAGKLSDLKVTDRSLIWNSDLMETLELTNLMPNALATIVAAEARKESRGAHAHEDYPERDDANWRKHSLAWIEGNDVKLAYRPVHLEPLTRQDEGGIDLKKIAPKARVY

As usually defined, the IC50 is the concentration that gives 50% inhibition. Consider `Cc1c(C)c2c(c(C)c1OC(=O)CCC(=O)O)CC[C@@](C)(CCC[C@H](C)CCC[C@H](C)CCCC(C)C)O2` [Compound 1, α-tocopheryl succinate], for which the IC50 in the assay on cancer cells was 40 to 50 µM; in assay [2] (Jurkat, HBT11, MCF7, MCF7-C3, 2003), 43 µM. Also, the “apoptosis after CybL siRNA” value in the assay on MCF-7 cells (MCF7 cells treated with siRNA against CybL) was “reduced the levels of apoptosis mediated by α-TOS”. Also, in the assay on MCF-7 cells (MCF-7 (erbB2-low), 24 h, normoxia or hypoxia), the apoptosis result was “sensitive to apoptosis induced by α-TOS under both normoxia and hypoxia”. Moreover, in assay [1], the “rate of reduction of DCIP (SDH/Complex II activity)” value was “decreased rapidly and significantly after treatment with α-TOS”. Besides, in the assay with MCF-7 tumors, the tumor growth result is listed as “repressed the growth of tumors in the treated group of mice with an overall reduction in tumor size”. Moreover, in assay [2] (compared with α-TOS and isomers), the “pro-apoptotic activity” value was “highest apoptogenic activity”.
